What was measured:
[1] = biological target: T1, human adenosine A2A receptor (Homo sapiens, UniProt P29274); assay: Inhibition binding assay, human adenosine A2A receptor membranes, [3H]ZM241385; details: 1 nM [3H]ZM241385, HEK293-hA2A membranes, 25° C., 1 h; IC50 converted to Ki with Cheng-Prusoff; read-out: A2A pKi (converted)
T1 construct: expressed in transfected cells; host or cells: HEK293 cells infected with BacMam
Experimental: (§1) Inhibition binding assays were performed using 0.2 μg of membranes prepared from HEK293 cells infected with BacMam human adenosine A2A receptor or 1.4 μg of membranes prepared from HEK293 cells infected with BacMam human adenosine A1 receptor. Membranes were incubated in 50 mM Tris-HCl (HEK293-hA2A; pH 7.4) or 50 mM Tris-HCl, 100 mM NaCl, 10 mM MgCl2 (CHO-hA1; pH 7.4) in the presence of varying concentrations of test compound and 1 nM [^3H]ZM241385 (HEK293-hA2A) or [^3H]DPCPX (CHO-hA1) at 25° C. for 1 h. The assay was then terminated by rapid filtration onto GF/B grade Unifilter plates using a TomTec cell harvester, followed by 5×0.5 ml washes with ddH2O. Nonspecific binding was defined in the presence of 1 μM CGS15943 (HEK293-hA2A) or 1 μM DPCPX (CHO-hA1). Bound radioactivity was determined by liquid scintillation counting and inhibition curves were analysed using a four-parameter logistic equation. IC50 values were converted to Ki values with the Cheng-Prusoff equation using a KD value derived from saturation binding studies.

[2] = biological target: T2, human adenosine A1 receptor (Homo sapiens, UniProt P30542); assay: Inhibition binding assay, human adenosine A1 receptor membranes, [3H]DPCPX; details: 1 nM [3H]DPCPX, 25° C., 1 h; IC50 converted to Ki with Cheng-Prusoff; read-out: A1 pKi (converted)
T2 construct: expressed in transfected cells; host or cells: HEK293 cells infected with BacMam (the same paragraph also labels the preparation CHO-hA1)
T2 sequence (P30542 1-326): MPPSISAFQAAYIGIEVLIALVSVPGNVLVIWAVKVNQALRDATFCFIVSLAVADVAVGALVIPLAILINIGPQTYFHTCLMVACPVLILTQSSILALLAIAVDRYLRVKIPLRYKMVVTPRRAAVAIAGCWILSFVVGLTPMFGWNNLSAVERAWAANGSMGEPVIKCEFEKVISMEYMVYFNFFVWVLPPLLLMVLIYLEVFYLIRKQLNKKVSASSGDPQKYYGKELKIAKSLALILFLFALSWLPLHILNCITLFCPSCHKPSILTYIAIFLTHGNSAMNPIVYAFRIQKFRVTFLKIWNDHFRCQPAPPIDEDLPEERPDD
Experimental: as §1

T1 sequence (P29274 whole entry): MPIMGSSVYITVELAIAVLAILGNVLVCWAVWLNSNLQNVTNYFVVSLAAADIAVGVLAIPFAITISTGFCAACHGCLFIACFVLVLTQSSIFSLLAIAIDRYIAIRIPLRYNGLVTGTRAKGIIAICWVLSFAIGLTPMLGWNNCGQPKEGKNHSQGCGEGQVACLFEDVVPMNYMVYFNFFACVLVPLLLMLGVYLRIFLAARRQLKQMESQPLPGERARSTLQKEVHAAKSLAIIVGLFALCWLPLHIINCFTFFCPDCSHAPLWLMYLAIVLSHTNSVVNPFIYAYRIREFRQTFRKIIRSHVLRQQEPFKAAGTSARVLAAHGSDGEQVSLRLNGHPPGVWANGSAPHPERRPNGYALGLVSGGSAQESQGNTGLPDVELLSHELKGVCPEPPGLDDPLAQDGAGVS

Compound	Ki [1] [nM]	Ki [2] [nM]
COc1cc(-c2c(-c3ccccc3)nc(N)n3c(=O)n(Cc4ccc(F)cn4)nc23)cc(CO)n1 [Example 1-73, 5-amino-2-[(5-fluoro-2-pyridyl)methyl]-8-[2-(hydroxymethyl)-6-methoxy-4-pyridyl]-7-phenyl-[1,2,4]triazolo[4,3-c]pyrimidin-3-one]	2.51	398
CCn1nc2c(-c3cc(C)nc(C)c3)c(-c3ccccc3)nc(N)n2c1=O [Example 2-3, 5-amino-8-(2,6-dimethyl-4-pyridyl)-2-ethyl-7-phenyl-[1,2,4]triazolo[4,3-c]pyrimidin-3-one]	20	631
Cc1cc(-c2c(-c3ccccc3)nc(N)n3c(=O)n(CCc4ccccn4)nc23)cc(C)n1 [Example 1-86, 5-amino-8-(2,6-dimethyl-4-pyridyl)-7-phenyl-2-[2-(2-pyridyl)ethyl]-[1,2,4]triazolo[4,3-c]pyrimidin-3-one]	5.01	794
Cc1cc(-c2c(-c3ccccc3)nc(N)n3c(=O)n(Cc4cccc(=O)[nH]4)nc23)cc(C)n1 [Example 1-9, 5-amino-8-(2,6-dimethyl-4-pyridyl)-2-[(6-oxo-1H-pyridin-2-yl)methyl]-7-phenyl-[1,2,4]triazolo[4,3-c]pyrimidin-3-one]	12.6	126
CCC(c1ccc(F)cn1)n1nc2c(-c3cc(C)nc(C)c3)c(-c3ccccc3)nc(N)n2c1=O (single isomer, unassigned) [Example 1-38-iso-2, 5-amino-8-(2,6-dimethyl-4-pyridyl)-2-[1-(5-fluoro-2-pyridyl)propyl]-7-phenyl-[1,2,4]triazolo[4,3-c]pyrimidin-3-one]	200	> 2000
Cc1cc(-c2c(-c3ccccc3)nc(N)n3c(=O)n(CCC(F)F)nc23)cc(C)n1 [Example 2-17, 5-amino-2-(3,3-difluoropropyl)-8-(2,6-dimethyl-4-pyridyl)-7-phenyl-[1,2,4]triazolo[4,3-c]pyrimidin-3-one]	2	1000
Cc1cc(-c2c(-c3ccccc3)nc(N)n3c(=O)n(C(C)c4ccccn4)nc23)cc(C)n1 (stereo not drawn) [Example 1-20, 5-amino-8-(2,6-dimethyl-4-pyridyl)-7-phenyl-2-[1-(2-pyridyl)ethyl]-[1,2,4]triazolo[4,3-c]pyrimidin-3-one]	12.6	316
COc1ncccc1Cn1nc2c(-c3cc(C)nc(C)c3)c(-c3ccccc3)nc(N)n2c1=O [Example 1-28, 5-amino-8-(2,6-dimethyl-4-pyridyl)-2-[(2-methoxy-3-pyridyl)methyl]-7-phenyl-[1,2,4]triazolo[4,3-c]pyrimidin-3-one]	0.2	63.1
Cc1cc(-c2c(-c3ccccc3)nc(N)n3c(=O)n(CCc4ccc(O)cc4)nc23)cc(C)n1 [Example 1-82, 5-amino-8-(2,6-dimethyl-4-pyridyl)-2-[2-(4-hydroxyphenyl)ethyl]-7-phenyl-[1,2,4]triazolo[4,3-c]pyrimidin-3-one]	12.6	251
COC(=O)c1ccc(CCn2nc3c(-c4cc(C)nc(C)c4)c(-c4ccccc4)nc(N)n3c2=O)cc1 [Example 1-84, methyl 4-[2-[5-amino-8-(2,6-dimethyl-4-pyridyl)-3-oxo-7-phenyl-[1,2,4]triazolo[4,3-c]pyrimidin-2-yl]ethyl]benzoate]	31.6	794
Cc1cc(-c2c(-c3ccccc3)nc(N)n3c(=O)n(CC4CCNCC4)nc23)cc(C)n1 [Example 2-68, 5-amino-8-(2,6-dimethyl-4-pyridyl)-7-phenyl-2-(4-piperidylmethyl)-[1,2,4]triazolo[4,3-c]pyrimidin-3-one]	398	> 3160
Cc1cc(-c2c(-c3ccccc3)nc(N)n3c(=O)n(Cc4ccccc4OCC4CC4)nc23)cc(C)n1 [Example 1-22, 5-amino-2-[[2-(cyclopropylmethoxy)phenyl]methyl]-8-(2,6-dimethyl-4-pyridyl)-7-phenyl-[1,2,4]triazolo[4,3-c]pyrimidin-3-one]	0.158	2
Cc1cc(-c2c(-c3ccccc3)nc(N)n3c(=O)n(CC4CCCCO4)nc23)cc(C)n1 (stereo not drawn) [Example 2-82, 5-amino-8-(2,6-dimethyl-4-pyridyl)-7-phenyl-2-(tetrahydropyran-2-ylmethyl)-[1,2,4]triazolo[4,3-c]pyrimidin-3-one]	0.316	251
Cc1cc(-c2c(-c3ccccc3)nc(N)n3c(=O)n(CC4(Cc5ccccc5)CCNCC4)nc23)cc(C)n1 [Example 1-102, 5-amino-2-[(4-benzyl-4-piperidyl)methyl]-8-(2,6-dimethyl-4-pyridyl)-7-phenyl-[1,2,4]triazolo[4,3-c]pyrimidin-3-one]	0.501	12.6
COc1cc(-c2c(-c3ccc(F)cc3)nc(N)n3c(=O)n(Cc4ccc(Cl)cn4)nc23)cc(CO)n1 [Example 1-68, 5-amino-2-[(5-chloro-2-pyridyl)methyl]-7-(4-fluorophenyl)-8-[2-(hydroxymethyl)-6-methoxy-4-pyridyl]-[1,2,4]triazolo[4,3-c]pyrimidin-3-one]	1.26	> 1580
Cc1cc(-c2c(-c3ccccc3)nc(N)n3c(=O)n(Cc4ccc(F)c(=O)[nH]4)nc23)cc(C)n1 [Example 1-8, 5-amino-8-(2,6-dimethyl-4-pyridyl)-2-[(5-fluoro-6-oxo-1H-pyridin-2-yl)methyl]-7-phenyl-[1,2,4]triazolo[4,3-c]pyrimidin-3-one]	25.1	316
[2H]c1c([2H])c([2H])c(-c2nc(N)n3c(=O)n(Cc4ccc(F)c(N)n4)nc3c2-c2cc(C)nc(CO)c2)c([2H])c1[2H] [Example 1-51, 5-amino-2-[(6-amino-5-fluoro-2-pyridyl)methyl]-8-[2-(hydroxymethyl)-6-methyl-4-pyridyl]-7-(2,3,4,5,6-pentadeuteriophenyl)-[1,2,4]triazolo[4,3-c]pyrimidin-3-one]	2	251
Cc1cc(-c2c(-c3ccccc3)nc(N)n3c(=O)n(CC45C6C7C8C6C4C8C75)nc23)cc(CO)n1 (stereo not drawn) [Example 2-62, 5-amino-2-(cuban-1-ylmethyl)-8-[2-(hydroxymethyl)-6-methyl-4-pyridyl]-7-phenyl-[1,2,4]triazolo[4,3-c]pyrimidin-3-one]	0.316	31.6
Cc1cc(-c2c(-c3ccccc3)nc(N)n3c(=O)n(CCN4C[C@@H](C)O[C@@H](C)C4)nc23)cc(C)n1 [Example 2-100, 5-amino-2-[2-((ds)-2,6-dimethylmorpholin-4-yl)ethyl]-8-(2,6-dimethyl-4-pyridyl)-7-phenyl-[1,2,4]triazolo[4,3-c]pyrimidin-3-one]	316	> 3160
Cc1cc(-c2c(-c3ccc(F)cc3)nc(N)n3c(=O)n(CCC(F)(F)F)nc23)cc(C)n1 [Example 2-33, 5-amino-8-(2,6-dimethyl-4-pyridyl)-7-(4-fluorophenyl)-2-(3,3,3-trifluoropropyl)-[1,2,4]triazolo[4,3-c]pyrimidin-3-one]	1.26	631
Cc1cc(-c2c(-c3ccc(F)cc3)nc(N)n3c(=O)n(Cc4ccc(Cl)cn4)nc23)cc(CO)n1 [Example 1-62, 5-amino-2-[(5-chloro-2-pyridyl)methyl]-7-(4-fluorophenyl)-8-[2-(hydroxymethyl)-6-methyl-4-pyridyl]-[1,2,4]triazolo[4,3-c]pyrimidin-3-one]	3.98	1000
Nc1nc(-c2ccccc2)c(-c2cc(Cl)nc(C(F)(F)F)c2)c2nn(Cc3ccc(F)cn3)c(=O)n12 [Example 1-79, 5-amino-8-[2-chloro-6-(trifluoromethyl)-4-pyridyl]-2-[(5-fluoro-2-pyridyl)methyl]-7-phenyl-[1,2,4]triazolo[4,3-c]pyrimidin-3-one]	2.51	251
COc1cc(-c2c(-c3ccccc3)nc(N)n3c(=O)n(Cc4ccc(F)cn4)nc23)cc(C)n1 [Example 1-78, 5-amino-2-[(5-fluoro-2-pyridyl)methyl]-8-(2-methoxy-6-methyl-4-pyridyl)-7-phenyl-[1,2,4]triazolo[4,3-c]pyrimidin-3-one]	0.126	158
Cc1cc(-c2c(-c3ccccc3)nc(N)n3c(=O)n(CC4CCN(C(=O)OC(C)(C)C)CC4)nc23)cc(C)n1 [Example 2-67, tert-butyl 4-[[5-amino-8-(2,6-dimethyl-4-pyridyl)-3-oxo-7-phenyl-[1,2,4]triazolo[4,3-c]pyrimidin-2-yl]methyl]piperidine-1-carboxylate]	6.31	1000

From patent publication US12528815B2, “5-amino-8-(4-pyridyl)-[1,2,4]triazolo[4,3-c]pyrimidin-3-one compounds for use against cancer” (Nxera Pharma UK Limited, priority 2020, dated 2026)
